Experimental data reported in patent publication US20240254123A1, “PYRIDOPYRIMIDINE DERIVATIVES USEFUL AS WEE1 KINASE INHIBITORS” (APREA THERAPEUTICS, INC., priority 2021, published 2024).

Legend:
PLK1 = PLK1 (Homo sapiens, UniProt P53350); assay: in vitro enzymatic inhibitory activity, PLK1 kinase, 10-dose IC50 mode; assay type: biochemical; settings: 10 μM ATP
Procedure: (§1) Compounds were tested against two kinases.
(§2) Data includes raw data, % Enzyme activity (relative to DMSO controls) and curve fits.

WEE1 [1] = target: T1, WEE1 (Homo sapiens, UniProt P30291); assay: in vitro enzymatic inhibitory activity, WEE1 kinase, 10-dose IC50 mode; assay type: biochemical; settings: 10 μM ATP
T1 construct: Drug treated cells are fixed and stained with propidium iodide (PI); endogenous in cells
Procedure: as §1, §2

WEE1 [2] = target: T1, WEE1; assay: Guava flow cytometry cell cycle assay (DNA content per cell, propidium iodide); assay type: cell-based
Description: In this example, compounds described herein were subject to an assay that detects changes the phases of the cell cycle upon drug treatment, permitting the identification of drugs that affect cell proliferation in a specific manner. For example, problematic DNA replication causes the percentage of cells in S phase to increase. Thus, quantification of cells in S phase permits identification of drugs that cause defects in DNA replication. Similarly, drugs that selectively defects in progression through G2/M can also be identified. Moreover, synergy between assayed drugs and known cell cycle regulators can be determined, as exemplified by the effect of ATR inhibition when combined with agents that slow DNA replication, which causes replication fork collapse into DSBs and complete loss of DNA synthesis. Two novel drugs can also be combined to quantify synergistic effects on specific cell cycle phases.
The assay operates by the quantification of DNA content per cell by flow cytometry. Cells are assessed for effects on cell cycle using a Guava EasyCyte™ flow cytometer (Austin, TX). Drug treated cells are fixed and stained with propidium iodide (PI) and resuspended in phosphate-buffered saline containing the PI staining buffer. During flow cytometry, PI is excited at 528 nm and is detected in a 610/20 bandpass. Readout of the […] is optical density of DNA-staining dye. The assay generates a histogram showing count of cells by amount of DNA, which is an indicator of place in the cell cycle. This rapid assay detects relative changes in the cell cycle upon drug treatment upon comparison vehicle-treated and single-agent controls for detection of combinatorial interactions. See, Table 4.

T1 sequence (P30291 whole entry): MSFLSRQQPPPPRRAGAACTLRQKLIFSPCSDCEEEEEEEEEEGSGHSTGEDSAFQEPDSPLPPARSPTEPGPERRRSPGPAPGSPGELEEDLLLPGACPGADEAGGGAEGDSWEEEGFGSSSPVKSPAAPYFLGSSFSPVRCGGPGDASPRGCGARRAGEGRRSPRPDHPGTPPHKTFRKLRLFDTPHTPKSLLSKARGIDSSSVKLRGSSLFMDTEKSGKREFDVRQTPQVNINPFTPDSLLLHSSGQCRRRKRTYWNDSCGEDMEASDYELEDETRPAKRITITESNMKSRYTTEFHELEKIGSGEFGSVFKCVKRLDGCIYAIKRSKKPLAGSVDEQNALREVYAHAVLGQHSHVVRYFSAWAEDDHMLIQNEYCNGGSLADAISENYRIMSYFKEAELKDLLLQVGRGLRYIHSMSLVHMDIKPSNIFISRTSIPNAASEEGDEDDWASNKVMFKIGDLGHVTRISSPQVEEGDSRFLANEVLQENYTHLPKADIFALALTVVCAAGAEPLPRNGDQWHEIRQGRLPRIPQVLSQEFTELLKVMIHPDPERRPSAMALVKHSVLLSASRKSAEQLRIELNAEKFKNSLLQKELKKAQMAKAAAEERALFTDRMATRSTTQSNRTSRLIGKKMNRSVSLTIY
PLK1, sequence (P53350 whole entry, species assumed): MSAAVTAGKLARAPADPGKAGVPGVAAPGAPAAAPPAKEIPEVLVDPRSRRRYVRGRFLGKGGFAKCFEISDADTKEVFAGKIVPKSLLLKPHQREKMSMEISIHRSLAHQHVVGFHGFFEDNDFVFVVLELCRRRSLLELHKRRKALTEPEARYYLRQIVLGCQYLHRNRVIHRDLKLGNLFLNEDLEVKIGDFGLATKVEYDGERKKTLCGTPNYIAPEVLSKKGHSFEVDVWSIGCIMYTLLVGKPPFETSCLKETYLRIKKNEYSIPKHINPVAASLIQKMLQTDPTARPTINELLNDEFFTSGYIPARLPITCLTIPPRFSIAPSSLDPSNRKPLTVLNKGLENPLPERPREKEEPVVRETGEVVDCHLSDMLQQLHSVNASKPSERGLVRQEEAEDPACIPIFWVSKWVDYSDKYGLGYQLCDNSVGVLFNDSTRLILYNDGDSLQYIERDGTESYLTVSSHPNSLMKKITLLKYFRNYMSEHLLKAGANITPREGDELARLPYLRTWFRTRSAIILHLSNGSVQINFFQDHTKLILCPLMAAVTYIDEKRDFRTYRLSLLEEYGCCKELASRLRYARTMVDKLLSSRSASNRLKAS

| IC50 (PLK1) [nM] | IC50 (WEE1 [1]) [nM] | WEE1 Guava MEC Guava MEC (WEE1 [2]; single agent, unit assumed) [µM] | WEE1 Guava MEC with 20 nM GEM (WEE1 [2]; with 20 nM GEM, in µM (unit assumed)) | Structure (SMILES) |
| --- | --- | --- | --- | --- |
| 159 |  |  |  | C=CCn1c(=O)c2cnc(Nc3ccc(N4CCN(C)CC4)cc3)nc2n1-c1cccc(C(C)(C)O)n1 [AZD1775] |
|  | 41 | 0.625 | 0.156 | CN1CCC(n2cc(Nc3ncc4c(=O)n(-c5c(Cl)cccc5Cl)cc(Br)c4n3)cn2)CC1 [Compound P1, 8-bromo-6-(2,6-dichlorophenyl)-2-[[1-(1-methyl-4-piperidyl)pyrazol-4-yl]amino]pyrido[4,3-d]pyrimidin-5-one] |
